Measured values: ChEMBL document CHEMBL5608248, “Exploring the Therapeutic Potential of Entheogens in Postoperative Cognitive Decline and Psychological Resilience” (ACS Med Chem Lett, 2024)

Target: 5-hydroxytryptamine receptor 2A (Homo sapiens) (UniProt P28223)
Assay: Agonist activity at 5-HT2A (unknown origin) expressed in HEK293 cells assessed as increase in calcium influx by measuring maximal efficacy incubated for 50 mins by Fluo-4 dye based FLIPR assay relative to control
Type: functional, cell-based
Conditions: filed as agonist

Sequence of 5-hydroxytryptamine receptor 2A (Homo sapiens) (P28223 whole entry): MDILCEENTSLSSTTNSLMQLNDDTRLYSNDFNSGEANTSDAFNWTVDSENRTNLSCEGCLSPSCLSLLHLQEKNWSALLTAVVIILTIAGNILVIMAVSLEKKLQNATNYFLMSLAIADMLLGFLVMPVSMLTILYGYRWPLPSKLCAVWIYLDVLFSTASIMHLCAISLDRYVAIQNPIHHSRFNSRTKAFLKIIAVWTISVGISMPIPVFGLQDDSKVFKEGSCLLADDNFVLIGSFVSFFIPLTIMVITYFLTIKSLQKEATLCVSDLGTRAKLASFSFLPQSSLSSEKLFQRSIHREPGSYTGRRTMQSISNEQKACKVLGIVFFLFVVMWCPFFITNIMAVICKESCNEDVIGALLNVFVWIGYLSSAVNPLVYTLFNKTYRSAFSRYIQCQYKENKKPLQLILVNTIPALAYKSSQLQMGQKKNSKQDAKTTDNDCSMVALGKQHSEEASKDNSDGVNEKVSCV

| Structure (SMILES) | Emax [%] |
| --- | --- |
| CN(CCc1cccc2cccc(O)c12)C1CC1 | 64 |
| COc1ccc2cccc(CCN(C)C)c2c1 | 79 |
| CCN(C)CCc1cccc2cccc(O)c12 | 68 |
| CCN(C)CCc1cccc2ccc(OC)cc12 | 63 |
| COc1cccc(CNCCc2cccc3ccc(OC)cc23)c1 | 84 |
| CN(C)CCc1cccc2cccc(O)c12 | 73 |
| CC(C)N(C)CCc1cccc2cccc(O)c12 | 79 |
